Experimental data as given in patent publication US20030031723A1, “Formulation and method for preparation of rapid dispersion spheroids which can be heavily titrated” (priority 2001, published 2003).

Assay: quantity of water absorbed by the same mass (100 g) of excipients
Assay type: physicochemical
From the text: Below are some examples supporting this statement, which test the quantity of water absorbed by the same mass (100 g) of excipients of different types: […]

## OC[C@H]1O[C@@H](O[C@H]2[C@H](O)[C@@H](O)C(O)O[C@@H]2CO)[C@H](O)[C@@H](O)[C@H]1O (stereo partly shown) [Lactose]
  AMOUNT OF WATER ABSORBED PER 100 g OF EXCIPIENT: 15 g
